Patent US20140227375A1, “PIP-2 Inhibition-Based Antiviral and Anti-Hyperlipidemic Therapies” (priority 2008, published 2014)

Biological target: HCV replication
Test: Luciferase reporter-linked transient HCV replication assay (FL-J6/JFH-5′C19Rluc2AUbi RNA)
Assay type: cell-based, hepatitis C virus (HCV)
Experimental: FIGS. 7A-7B. A PIP-2 ligand inhibits HCV replication in a dose-dependent manner. Luciferase reporter-linked HCV replication assay. Huh 7.5 cells were electroporated with 10 ug of in vitro-transcribed wild type, FL-J6/JFH-5′C19Rluc2AUbi RNAs. Electroporated cells were treated with […] of neomyin. Renilla luciferase activities were measured at 5 days after electroporation. Alamar blue assays were performed to compare relative cell viabilities.
The NS5A PIP2 interaction is amenable to pharmacologic disruption. […] Such inhibitors represent a valuable new class of anti-HCV agents to be included in future therapeutic cocktails designed to maximize efficiency of, and minimize resistance to, therapies for treating hepatitis C.
The electroporated cells were diluted in 18 ml of cell culture medium. 1 ml of cells was aliquoted in 6 well tissue culture plates. Electroporated cells were treated with 0, 172, 345, 689, 1378, and 2756 μM of neomyin for 5 days. Renilla luciferase activities were measured by using renilla luciferase kit from Promega (Madison, Wis.).

Question: With neomycin as the substance, how does the EC50 (Renilla luciferase activity 5 days after electroporation, read-out: EC50 against HCV replication) read?
Answer: The EC50 was 200 µM.

Question: What about the “inhibition of HCV genome replication” value (increasing concentrations of neomycin (0-2756 μM), 5 days) of the same substance?
Answer: The value was “dose-dependent increase in inhibition of HCV genome replication”.
